Marks after values point to notes of the source that are not given here.
How the values were obtained:
[1] = test system: ovariectomized adult female rats; assay: Biomechanical three-point bending test of femurs of OVX rats; assay type: in vivo, rat
Experimental: Ovariectomy and cut of sciatic nerve: Ovariectomy and cut of sciatic nerve were performed in adult female and male rats (3 month-old), respectively. After surgery, the rats were injected with Indazole 1 (i.p., 1 mg/Kg) or a vehicle daily for 4 weeks. On the day following the last injection, the rats were sacrificed and their tibia and femur were removed. Biomechanical three-point bending test: Mechanical properties of bone tissues were measured via a three-point bending test using a MTS-858 testing machine (MTS System Inc., Minneapolis, Minn.). The span of two support points was 20 millimeters and the deformation rate was 1 mm/min. Load/deformation curves were acquired by Team 490 software (version 4.10, Nicolet Instrument Technologies Inc., Madison, Wis.). Sigma Plot 6.0 software (SPSS Inc., Chicago, Ill.) was used to calculate extrinsic material properties of bone samples, including maximal load, ultimate load, energy to maximal load, energy to ultimate load, and linear stiffness. Energy to maximal load and energy to ultimate load were calculated as the areas under the load/deforming curves. Stiffness was calculated as the slope of the linear portion of the load/deformation curves. The cross-sectional moment of inertia was calculated under the assumption that the cross-sections were elliptically shaped (Turner et al., The effects of fluoridated water on bone strength. Orthop Res (1992) 10: 581–587). Maximal stress, ultimate stress, and elastic modulus (Young's modulus) were calculated using the methods described in Turner et al., Basic biomechanical measurements of bone: a tutorial, Bone (1993) 14:595–608.

cultured osteoblasts = assay: Collagen synthesis (4-hydroxyproline content); assay type: cell-based, rat; conditions: only at a higher concentration of 10 μM
Experimental: von Kossa staining: Osteoblasts were cultured in DMEM containing 50 μg/ml vitamin C and 10 mM β-glycerophosphate for 2 weeks and the medium was changed every 3 days. To examine nodule formation, the cells were fixed in 4% paraformaldehyde for 10 min, rinsed with water, stained with 1% silver nitrate, placed under a UV lamp for 30 min and rinsed with water before treating with 5% sodium thiosulfate for 2 min. The cells were then washed twice with water and counterstained with 1% Safranin-O to visualize the matrix. The number of nodules formed per well was counted under a light microscope. Collagen synthesis was determined by measuring the 4-hydroxyproline content in cultured osteoblasts. Cells cultured in DMEM containing 50 μg/ml vitamin C and 10 mM β-glycerophosphate for 2 weeks were hydrolyzed in 6N HCl for 16 h at 116° C. After lyophilizing and reconstituting a lysate in distilled water, the amount of 4-hydroxyproline was determined by spectrophotometry at 550 nm as described by Berg (1982) Meth Enzymol. 82: 372–398.

[2] = test system: ovariectomized adult female rats; assay: Ovariectomy-induced bone loss: bone size, BMD, BMC, bone volume; assay type: in vivo, rat
Description: Bone histomorphometry: After formalin fixation of tibia was completed, the tibiae were then decalcified in 0.5 N hydrochloric acid, dehydrated in an ascending series of ethanol solution and acetone, and embedded in paraffin. Serial sections (5 μm) were cut longitudinally and stained with Mayer's hematoxylin-eosin solution (Yang et al. (1993) Calcif Tissue Int 52:57–61). Images of the growth plate and proximal tibia were photographed using a photoMicroGraphic Digitize integrate System (MGDS; Total-Integra Technology Co., Ltd., Taipei, Taiwan). Bone volume measurements were performed on the whole secondary spongiosa, which is located under the primary spongiosa and characterized by a network of larger trabeculae. Bone volumes were calculated using an image analysis software. All measurements were done in a single-blind fashion. Ovariectomy and cut of sciatic nerve: Ovariectomy and cut of sciatic nerve were performed in adult female and male rats (3 month-old), respectively. After surgery, the rats were injected with Indazole 1 (i.p., 1 mg/Kg) or a vehicle daily for 4 weeks. On the day following the last injection, the rats were sacrificed and their tibia and femur were removed. Tibia and femur Preparation: At the end of the program, the rats were sacrificed by decapitation. The tibiae were removed, cleaned of soft tissue, and the length of the tibia was measured with a precision caliper (±0.05 mm) as described by Weinreb et al. (1991) J Bone Miner Res 6:725–731. The tibiae were fixed in 10% formaldehyde for 48 h at 4° C. for bone histomorphometry analysis. Some of the tibia and femur were also removed and kept at −20° C. for bone mineral analysis. Analysis of bone mineral density (BMD) and content (BMC): BMD and BMC of the tibia and femur were measured with a dual-energy X-ray absorptiometer (DEXA, XR-26; Norland, Fort Atkinson, Wis.). The mode adapted to the measurements of small subjects was adopted. A coefficient of variation of 0.7% was calculated from daily measurements of BMD on a lumbar phantom for more than 1 year (Yang et al. (1998) Calcif Tissue Int 63:86–90). The tibia and femur were thawed to room temperature before bone mineral analysis. The whole tibiae and femur were scanned and BMD and BMC were measured by absorptiometer. Prevention of bone loss: Ovariectomy (OVX) was performed in adult female rats (n=28). After ovariectomy, one group of the ovariectomized rats (n=16) were injected with Indazole 1 (i.p., 1 mg/kg/day), and the other group (n=12) were not. 15 un-ovarietctomized adult female rats were used as sham-operated controls and were not injected with Indazole 1. […] A 60% reduction in bone volume was observed 4 weeks after ovariectomy. […] The bone volume reached 76% of sham-operated controls.

[3] = femurs, OVX rats, i.p. 1 mg/kg daily for 4 weeks
[4] = OVX rats, 1 mg/kg daily for 4 weeks
[5] = OVX rats, i.p. 1 mg/kg daily for 1 month, mean ± S.E.

## OCc1ccc(-c2nn(Cc3ccccc3)c3ccccc23)o1 [Indazole 1, 1-benzyl-3-(5′-hydroxymethyl-2′-furyl)-indazole]
[1]; [3]
  Maximal load: 100.5 ± 3.0 N
  Ultimate load: 79.8 ± 3.3 N
  Ultimate stress: 14.6 ± 2.5 Mpa
[1]; treated OVX rats
  ultimate stress and Young's modulus of femurs compared with sham-operated controls: only slightly lower
Cultured osteoblasts
  collagen synthesis: increased
[2]; [4]
  bone volume relative to sham-operated controls: 76 % of sham-operated controls
  loss of trabecular bone of tibia secondary spongiosa: reduced loss of trabecular bone
[2]; [5]
  Femur BMC: 0.281 ± 0.001^b
  Femur BMD: 0.112 ± 0.002^b
  Femur length: 3.55 ± 0.01 cm
  Femur weight: 0.87 ± 0.01 g
  Tibia BMC: 0.173 ± 0.011^b
  Tibia BMD: 0.097 ± 0.002^b
  Tibia length: 4.05 ± 0.03 cm
  Tibia weight: 0.67 ± 0.01 g
[2]; daily injection, i.p. 1 mg/kg/day
  ovariectomy-induced loss of BMD and BMC in both tibia and femur: provided protection

Reference: US7160916B2, “Method of increasing bone density or treating osteoporosis” (Yung Shin Pharmaceutical Ind. Co., Ltd., priority 2003, dated 2007)
